In one experiment the target is T1, kinase domain of cKIT (Homo sapiens, UniProt P10721).
T1 construct: The kinase domain of cKIT was assayed in 50 mM Hepes; purchased Upstate 14-559
Briefly: Inhibition of cKIT kinase signaling in an in vitro biochemical assay (alphascreen). The conditions noted are these: tested at about 1 μM; for inhibition at 1 µM: read-out: cKit percent inhibition. The protocol: (§1) The IC50 values for the inhibition of RTKs were determined in the alphascreen format measuring the inhibition by compound of phosphate transfer to a substrate by the respective enzyme. Briefly, the respective RTK domain purchased as human recombinant protein (cKIT Upstate #14-559, PDGFRb Invitrogen #P3082) were incubated with serial dilutions of compound in the presence of substrate and ATP concentrations within 3 times the Km of the enzyme.
(§2) Alphascreen PY20 beads were added to the stopped cKIT reactions and PY20 Ab/Protein A Alphascreen beads were added to the PDGFRβ stopped reactions. Both reactions were incubated overnight and read on the Alphascreen reader.
In general terms: Alpha assays give light when donor and acceptor beads are brought close together.

Experiment [1] has as its target T2, cytoplasmic domain of the human CSF-1R (Homo sapiens, UniProt P07333).
T2 construct: Recombinant protein corresponding to the cytoplasmic domain of the human CSF-1R; purchased Invitrogen Corporation, Carlsbad, Calif; PV3249
T2 sequence (P07333 539-972 limits assumed): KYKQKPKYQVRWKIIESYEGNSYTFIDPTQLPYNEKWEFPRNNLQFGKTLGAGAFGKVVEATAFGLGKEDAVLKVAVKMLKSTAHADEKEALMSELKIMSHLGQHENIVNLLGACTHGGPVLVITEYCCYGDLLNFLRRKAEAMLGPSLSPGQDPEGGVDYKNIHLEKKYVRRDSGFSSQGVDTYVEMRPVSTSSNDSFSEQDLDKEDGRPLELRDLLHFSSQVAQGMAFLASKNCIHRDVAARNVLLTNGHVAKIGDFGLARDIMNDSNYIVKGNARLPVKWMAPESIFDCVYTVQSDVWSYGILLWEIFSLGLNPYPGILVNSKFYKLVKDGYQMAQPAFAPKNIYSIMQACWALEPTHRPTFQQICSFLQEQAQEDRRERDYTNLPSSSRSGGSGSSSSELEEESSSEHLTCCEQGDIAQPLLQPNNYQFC
Briefly: In vitro kinase assay for colony stimulating factor-1 receptor (AlphaScreen). In kind it is biochemical. The conditions noted are these: tested at about 1 μM; for inhibition at 1 µM: read-out: CSF-1R percent inhibition. The protocol: The kinase activity of various protein tyrosine kinases can be measured by providing ATP and a suitable peptide or protein tyrosine-containing substrate, and assaying the transfer of phosphate moiety to the tyrosine residue. Recombinant protein corresponding to the cytoplasmic domain of the human CSF-1R was purchased from Invitrogen Corporation, Carlsbad, Calif. U.S.A. (#PV3249). For each assay, test compounds were serially diluted, starting at 25 μM with 3 fold dilutions, in DMSO in 384 well plates then mixed with an appropriate kinase reaction buffer consisting of 50 mM Hepes, 5 mM MgCl2, 10 mM MnCl2, 0.1% BSA, pH 7.5, 1.0 mM dithiothreitol, 0.01% Tween 80 plus 1 μM ATP. […] Added to the stopped reaction mix was 30 μL of PT66 Alphascreen beads (Perkin Elmer, Boston, Mass., U.S.A.). The reaction was incubated overnight and read on the Envision (Perkin Elmer). Phosphorylated peptide product was measured with the AlphaScreen system (Perkin Elmer) using acceptor beads coated with anti-phosphotyrosine antibody PT66 and donor beads coated with streptavidin that emit a fluorescent signal at the 520-620 nm emission wave length if in close proximity.
CSF-1R kinase was added at final concentration of 4 nM.

In another experiment the target is T3, kinase domain of PDGFRβ (Homo sapiens, UniProt P09619).
T3 construct: The kinase domain of PDGFRβ was assayed in 50 mM Hepes; purchased Invitrogen P3082
T3 sequence (P09619 600-962 limits assumed): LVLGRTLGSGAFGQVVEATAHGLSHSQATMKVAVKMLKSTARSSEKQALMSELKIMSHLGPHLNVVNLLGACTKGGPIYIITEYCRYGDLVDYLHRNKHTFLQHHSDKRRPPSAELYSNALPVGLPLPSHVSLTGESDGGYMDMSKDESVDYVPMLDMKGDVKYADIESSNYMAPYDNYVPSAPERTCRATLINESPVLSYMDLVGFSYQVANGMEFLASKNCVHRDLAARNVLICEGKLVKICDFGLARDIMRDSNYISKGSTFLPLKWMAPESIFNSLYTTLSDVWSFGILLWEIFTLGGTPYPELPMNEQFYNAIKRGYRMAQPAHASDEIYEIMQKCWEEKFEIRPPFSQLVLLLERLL
Briefly: Inhibition of PDGFRb kinase signaling in an in vitro biochemical assay (alphascreen). To be noted: tested at about 1 μM, read-out: PDGFRβ percent inhibition. The protocol:
as §1, §2

Read-outs that look alike come from different tables or passages of the source.

T1 sequence (P10721 589-937 limits assumed): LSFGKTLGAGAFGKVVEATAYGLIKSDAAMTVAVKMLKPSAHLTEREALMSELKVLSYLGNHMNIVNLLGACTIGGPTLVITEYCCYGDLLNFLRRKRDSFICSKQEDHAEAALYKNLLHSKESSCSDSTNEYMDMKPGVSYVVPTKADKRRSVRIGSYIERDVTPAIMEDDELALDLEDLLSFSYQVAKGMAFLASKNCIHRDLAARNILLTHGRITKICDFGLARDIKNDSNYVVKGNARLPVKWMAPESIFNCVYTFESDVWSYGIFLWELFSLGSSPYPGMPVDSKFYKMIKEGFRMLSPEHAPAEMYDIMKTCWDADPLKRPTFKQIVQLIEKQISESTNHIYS

As for `CNC(=O)c1cc(Oc2ccc3nc(N[C@H](CO)c4ccccc4)oc3c2)ccn1` [Compound 56, 4-[2-((S)-2-Hydroxy-1-phenyl-ethylamino)-benzooxazol-6-yloxy]-pyridine-2-carboxylic acid methylamide], the values for the inhibition at 1 µM (at kinase domain of cKIT; in experiment [1]; at kinase domain of PDGFRβ) were 55%, 66% and 0%, respectively.

Consider `CNC(=O)c1cc(Oc2ccc3nc(NCCN4CCCC4)oc3c2)ccn1` [Compound 63, 4-[2-(2-Pyrrolidin-1-yl-ethylamino)-benzooxazol-6-yloxy]-pyridin-2-carboxylic acid methylamide], for which the inhibition (as a rule, the percentage by which the read-out fell short of the control) at 1 µM amounted to 6% on kinase domain of cKIT, 45% in experiment [1] and 3% on kinase domain of PDGFRβ.

On to `CNC(=O)c1cc(Oc2ccc3nc(N[C@H]4CCCC[C@H]4NC(=O)[C@@H]4CCCN4C)sc3c2)ccn1` [Example 313, N-methyl-4-(2-((1S,2R)-2-((S)-1-methylpyrrolidine-2-carboxamido)cyclohexylamino)benzo[d]thiazol-6-yloxy)picolinamide], for which the values for the inhibition at 1 µM (on kinase domain of cKIT; in experiment [1]; at kinase domain of PDGFRβ) were 23%, 52% and 2%, respectively.

For the molecule `CNC(=O)c1cc(Oc2ccc3nc(N[C@@H]4CCN(C(C)=O)C4)sc3c2)ccn1` [Example 303, (R)-4-(2-(1-acetylpyrrolidin-3-ylamino)benzo[d]thiazol-6-yloxy)-N-methylpicolinamide], the inhibition at 1 µM at kinase domain of cKIT came to 24%; in experiment [1], 74%; on kinase domain of PDGFRβ it was 12%.

Turning to `CNC(=O)c1cc(Oc2ccc3nc(N[C@H]4CCCC[C@H]4NC(=O)NC(C)C)sc3c2)ccn1` [Example 301, 4-(2-((1S,2R)-2-(3-isopropylureido)cyclohexyl-amino)benzo[d]thiazol-6-yloxy)-N-methylpicolinamide], the inhibition at 1 µM at kinase domain of cKIT was found to be 0%; in experiment [1] it was 55%; at kinase domain of PDGFRβ it was 7%.

With `CNC(=O)c1cc(Oc2ccc3nc(N[C@H]4CC[C@@H](NC(=O)c5ccccc5)CC4)sc3c2)ccn1` [Compound 135], the inhibition at 1 µM came out at 21% on kinase domain of cKIT (compounds of Table 3), 75% in experiment [1] (compounds of Table 3) and 11% at kinase domain of PDGFRβ (compounds of Table 3).

Turning to `CNC(=O)c1cc(Oc2ccc3nc(NC(C)C(O)c4cc(OC)ccc4OC)sc3c2)ccn1` (stereo not drawn) [Compound 123], the results for the inhibition at 1 µM (at kinase domain of cKIT (compounds of Table 3); in experiment [1] (compounds of Table 3); on kinase domain of PDGFRβ (compounds of Table 3)) were 1%, 62% and 0%, respectively.

For the molecule `OCc1cc(Oc2ccc3nc(NCC4CCCCC4)oc3c2)ccn1` [Compound 80, {4-[2-(Cyclohexylmethyl-amino)-benzooxazol-6-yloxy]-pyridin-2-yl}-methanol], the inhibition at 1 µM on kinase domain of cKIT amounted to 7%; in experiment [1], 87%; on kinase domain of PDGFRβ, 0%.

Regarding `CC(=O)N[C@@H]1CCN(c2cc(Oc3ccc4nc(N[C@@H]5CCCC[C@H]5O)sc4c3)ccn2)C1` [Cmpd 177, N-((R)-1-(4-(2-((1R,2R)-2-hydroxycyclohexylamino)benzo[d]thiazol-6-yloxy)pyridin-2-yl)pyrrolidin-3-yl)acetamide], the inhibition at 1 µM on kinase domain of cKIT (compounds of Table 3) amounted to 15%; in experiment [1] (compounds of Table 3) it was 67%; at kinase domain of PDGFRβ (compounds of Table 3), 0%.

Consider `CNC(=O)c1cc(Oc2ccc3nc(N[C@H]4CCCN(C(=O)NC(C)C)C4)sc3c2)ccn1` [Example 333, (S)-4-(2-(1-(isopropylcarbamoyl)piper-idin-3-ylamino)benzo[d]thiazol-6-yloxy)-N-methylpicolinamide], for which the inhibition at 1 µM on kinase domain of cKIT is 21%; in experiment [1], 86%; at kinase domain of PDGFRβ it was 6%.

For the molecule `CNC(=O)c1cc(Oc2ccc3nc(N[C@@H](C)c4ccc5ccccc5c4)oc3c2)ccn1` [Compound 20, 4-[2-((S)-1-Naphthalen-2-yl-ethylamino)-benzooxazol-6-yloxy]-pyridine-2-carboxylic acid methylamide], the inhibition at 1 µM turned out to be 15% in experiment [1] and 0% at kinase domain of PDGFRβ.

On to `CNC(=O)c1cc(Oc2ccc3nc(NC(=O)c4cccc5c4OCCO5)oc3c2)ccn1` [Compound 110, 4-{2-[(2,3-Dihydro-benzo-[1,4]dioxine-5-carbonyl)-amino]-benzooxazol-6-yloxy}-pyridine-2-carboxylic acid methylamide], for which the inhibition at 1 µM stood at 16% on kinase domain of cKIT, 85% in experiment [1] and 8% on kinase domain of PDGFRβ.

Molecule “4-[2-(Benzo[1,3]dioxol-5-yl- amino)-benzooxazol-6- yloxy]-pyridine-2-carboxylic acid methylamide [Compound 95]” showed a cKit percent inhibition at kinase domain of cKIT (compounds of Table 4) of 42%. In addition, in experiment [1] (compounds of Table 4), the CSF-1R percent inhibition is 100%.

Regarding `CNC(=O)c1cc(Oc2ccc3nc(NC4CCCC4)oc3c2)ccn1` [Compound 23, 4-(2-Cyclopentylamino-benzooxazol-6-yloxy)-pyridine-2-carboxylic acid methylamide], the inhibition at 1 µM is 50% in experiment [1] and 0% on kinase domain of PDGFRβ.

`CNC(=O)c1cc(Oc2ccc3nc(NC(C)c4nccs4)oc3c2)ccn1` (stereo not drawn) [Compound 6, 4-[2-(1-Thiazol-2-yl-ethylamino)-benzooxazol-6-yloxy]-pyridine-2-carboxylic acid methylamide]: in experiment [1], the inhibition at 1 µM worked out at 85%.

Turning to `CNC(=O)c1cc(Oc2ccc3nc(N[C@H](C(=O)O)c4ccccc4)oc3c2)ccn1` [Compound 38, (S)-[6-(2-Methylcarbamoyl-pyridin-4-yloxy)-benzooxazol-2-ylamino]-phenyl-acetic acid], the inhibition at 1 µM in experiment [1] came out at 34%; on kinase domain of PDGFRβ it was 14%.

For `CNC(=O)c1cc(Oc2ccc3nc(NC4CCOCC4)oc3c2)ccn1` [Compound 30, 4-[2-(Tetrahydro-pyran-4-yl-amino)-benzooxazol-6-yloxy]-pyridine-2-carboxylic acid methylamide], the figures for the inhibition at 1 µM (in experiment [1]; at kinase domain of PDGFRβ) were 25% and 14%, respectively.

In the case of `CNC(=O)c1cc(Oc2ccc3nc(N[C@@H](C(=O)O)c4ccccc4)oc3c2)ccn1` [Compound 35, (R)-[6-(2-Methylcarbamoyl-pyridin-4-yloxy)-benzooxazol-2-ylamino]-phenyl-acetic acid], the inhibition at 1 µM in experiment [1] was determined as 19%; at kinase domain of PDGFRβ it was 9%.

For the molecule `CNC(=O)c1cc(Oc2ccc3nc(N[C@H](C(=O)NC)c4ccccc4)oc3c2)ccn1` [Compound 39, 4-{2-[((S)-Methylcarbamoyl-phenyl-methyl)-amino]-benzooxazol-6-yloxy}-pyridine-2-carboxylic acid methylamide], the inhibition at 1 µM was found to be 67% in experiment [1] and 10% on kinase domain of PDGFRβ.

In the case of `CNC(=O)c1cc(Oc2ccc3nc(N[C@@H](CO)c4ccccc4)oc3c2)ccn1` [Compound 37, 4-[2-((R)-2-Hydroxy-1-phenyl-ethylamino)-benzooxazol-6-yloxy]-pyridine-2-carboxylic acid methylamide], the values for the inhibition at 1 µM (in experiment [1]; at kinase domain of PDGFRβ) were 79% and 16%, respectively.

Take `CNC(=O)c1cc(Oc2ccc3nc(Nc4ccccc4-n4cnc(C)c4)oc3c2)ccn1` [Compound 45, 4-{2-[2-(4-Methyl-imidazol-1-yl)-phenylamino]-benzooxazol-6-yloxy}-pyridine-2-carboxylic acid methylamide]: the inhibition at 1 µM in experiment [1] was determined as 11%; at kinase domain of PDGFRβ, 14%.

Turning to `CNC(=O)c1cc(Oc2ccc3nc(Nc4ccccc4CCN4CCCC4)oc3c2)ccn1` [Compound 43, 4-{2-[2-(2-Pyrrolidin-1-yl-ethyl)-phenylamino]-benzooxazol-6-yloxy}-pyridine-2-carboxylic acid methylamide], the inhibition at 1 µM in experiment [1] came to 26%; at kinase domain of PDGFRβ, 15%.

The values above are taken from patent US8173689B2 (Novartis AG, priority 2006, dated 2012).
